Experiments:
[1] = CPHPC added to solvents to the point of saturation (donor solutions); format: physicochemical; settings: ethanolamine as solvent
Experimental: CPHC was added to the solvents listed in Table 1 below to the point of saturation: […]

[2] = Oral delivery of CPHPC in rats, serum CPHPC concentrations; format: in vivo
Experimental: One group of rats were dosed by oral gavage a solution containing 200 mg/kg SNAC and 10 mg/kg CPHPC (Group 1). The dosing volume was 1 mL/kg. Two groups of rats also received, respectively, control arms of 10 mg/kg CPHPC alone via oral gavage (Group 2) and 0.2 mg/kg of CPHPC via IV (Group 3).
Serum CPHPC concentrations […]) were measured over 40 minutes.

[3] = investigational studies, background; cited from earlier work

- Solubility of CPHPC in ethanolamine compared with the other solvents [1]: much more soluble in ethanolamine
- Serum CPHPC concentration ([2]; Group 1: 200 mg/kg SNAC and 10 mg/kg CPHPC via PO, 0 min.): 0 ng/mL
- Serum CPHPC concentration ([2]; Group 1: 200 mg/kg SNAC and 10 mg/kg CPHPC via PO, 5 min.): 2960 ± 1210 ng/mL
- Serum CPHPC concentration ([2]; Group 1: 200 mg/kg SNAC and 10 mg/kg CPHPC via PO, 10 min.): 5480 ± 526 ng/mL
- Serum CPHPC concentration ([2]; Group 1: 200 mg/kg SNAC and 10 mg/kg CPHPC via PO, 20 min.): 2800 ± 400 ng/mL
- Serum CPHPC concentration ([2]; Group 1: 200 mg/kg SNAC and 10 mg/kg CPHPC via PO, 40 min.): 1440 ± 219 ng/mL
- Serum CPHPC concentration ([2]; Group 2: 10 mg/kg CPHPC alone via PO, 0 min.): 0 ng/mL
- Serum CPHPC concentration ([2]; Group 2: 10 mg/kg CPHPC alone via PO, 5 min.): 1060 ± 107 ng/mL
- Serum CPHPC concentration ([2]; Group 2: 10 mg/kg CPHPC alone via PO, 10 min.): 1420 ± 171 ng/mL
- Serum CPHPC concentration ([2]; Group 2: 10 mg/kg CPHPC alone via PO, 20 min.): 667 ± 97.1 ng/mL
- Serum CPHPC concentration ([2]; Group 2: 10 mg/kg CPHPC alone via PO, 40 min.): 175 ± 15 ng/mL
- Serum CPHPC concentration ([2]; Group 3: 0.2 mg/kg CPHPC via IV, 0 min.): 0 ng/mL
- Serum CPHPC concentration ([2]; Group 3: 0.2 mg/kg CPHPC via IV, 5 min.): 223 ± 19.5 ng/mL
- Serum CPHPC concentration ([2]; Group 3: 0.2 mg/kg CPHPC via IV, 10 min.): 229 ± 44.8 ng/mL
- Serum CPHPC concentration ([2]; Group 3: 0.2 mg/kg CPHPC via IV, 20 min.): 170 ± 26.2 ng/mL
- Serum CPHPC concentration ([2]; Group 3: 0.2 mg/kg CPHPC via IV, 40 min.): 65.4 ± 25.7 ng/mL
SMILES: O=C(O)[C@H]1CCCN1C(=O)CCCCC(=O)N1CCC[C@@H]1C(=O)O [CPHPC, R-1-(6-(R-2-carboxy-pyrrolidin-1-yl)-6-oxo-hexanoyl)pyrrolidine-2-carboxylic acid]
- oral bioavailability [3]: poor oral bioavailability

Source: patent US9345722B2, “Pharmaceutical formulations for the treatment of alzheimer's disease” (EMISPHERE TECHNOLOGIES, INC., priority 2006, dated 2016)
